Measurements as given in patent publication EP1972623A1, “Arylpyridazines as fungicides” (Bayer CropScience AG, priority 2007, dated 2008).

assay: logP determination via HPLC retention times (calibration with unbranched alkan-2-ones); format: physicochemical; details: HPLC on reversed-phase C 18 columns per EEC Directive 79/831 Annex V.A8; acidic mobile phase (0.1% aqueous formic or phosphoric acid) and acetonitrile, linear gradient 10% to 95% acetonitrile
Source text: Die Kalibrierung wurde jeweils mit unverzweigten Alkan-2-onn (3 bis 16 Kohlenstoff Atome) mit bekannten IogP Werten durchgeführt (Bestimmung von den logP Werten über die Retentionszeiten durch lineare Interpolation zwischen zwei bestimmten Alkazionen). Die Lambda-max Werte wurden jeweils in den Maxima der Chromatographie-Signale durch UV Spektren zwischen 190nm und 400nm bestimmt.

SMILES	chromatographic logP
Cc1ccccc1-c1c(Cl)nnc(C)c1-c1cccs1 [Beispiel 190]	3.18

same assay, conditions: HPLC on reversed-phase C 18 columns, EEC Directive 79/831 Annex V.A8; acidic aqueous mobile phase / acetonitrile, linear gradient 10% to 95% acetonitrile

SMILES	chromatographic logP	logP
Cc1nnc(Cl)c(-c2c(Cl)cccc2Cl)c1-c1ccc(Cl)s1 [compound 46]	4.44	–
Cc1ccc(-c2c(C)nnc(Cl)c2-c2c(F)cccc2F)o1 [compound 104]	3.26	–
Cc1nnc(Cl)c(-c2c(F)cc(F)cc2F)c1-c1ccc(Cl)s1 [compound 67]	4.11	–
Cc1nnc(Cl)c(-c2ccc(F)cc2Br)c1-c1ccc(Cl)s1 [compound 10]	4.28	–
Cc1nnc(Cl)c(-c2c(F)cccc2Cl)c1-c1cccs1 [compound 55]	3.33	–
Cc1nnc(Cl)c(-c2ccc(F)cc2Cl)c1-c1ccc(Cl)s1 [compound 38]	4.21	–
Cc1nnc(Cl)c(-c2cc(F)c(F)cc2F)c1-c1cccs1 [compound 85]	3.39	–
Cc1nnc(Cl)c(-c2ccccc2F)c1-c1cccs1 [compound 121]	3.05	–
Cc1nnc(Cl)c(-c2ccccc2Cl)c1-c1ccc(Cl)s1 [Beispiel 58]	–	4,01
Cc1nnc(Cl)c(-c2cccc(Cl)c2)c1-c1cccs1 [compound 172]	3.34	–
Cc1ccc(-c2c(C)nnc(Cl)c2-c2c(Cl)cccc2Cl)nc1C [compound 47]	4.16	–
Cc1nnc(Cl)c(-c2cc(F)c(F)cc2F)c1-c1ccc(Cl)s1 [compound 86]	4.01	–
Cc1nnc(Cl)c(-c2c(F)cccc2F)c1-c1nccs1 [compound 105]	2.51	–
Cc1nnc(Cl)c(-c2cc(Cl)ccc2F)c1-c1ccc(Cl)s1 [compound 120]	4.16	–

same assay, conditions: from retention times, linear interpolation between alkan-2-ones

SMILES	chromatographic logP	logP
Cc1n[nH]c(=O)c(-c2ccccc2Cl)c1-c1ccc(Cl)s1 [4-(2-Chlorphenyl)-5-(5-chlor-2-thienyl)-6-methylpyridazin-3(2H)-on]	2.83	–
Cc1n[nH]c(=O)c(-c2ccc(F)cc2Br)c1-c1ccc(Cl)s1 [4-(2-Brom-4-fluorphenyl)-5-(5-chlor-2-thienyl)-6-methylpyridazin-3(2H)-on]	3.03	–
CC1(O)OC(=O)C(c2c(F)cccc2Cl)=C1c1cccs1 (stereo not shown) [3-(2-Chlor-6-fluorphenyl)-4-(2-thienyl)-5-hydroxy-5-methylfuran-2(5H)-on]	2.61	–
CC1(O)OC(=O)C(c2ccc(F)cc2Cl)=C1c1ccc(Cl)s1 (stereo not shown) [3-(2-Chlor-4-fluorphenyl)-4-(5-chlor-2-thienyl)-5-hydroxy-5-methylfuran-2(5H)-on]	3.24	–
Cc1n[nH]c(=O)c(-c2c(F)cccc2F)c1-c1ccncc1 [5-(4-Pyridyl)4-(2,6-difluorphenyl)-6-methylpyridazin-3(2H)-on]	0.93	–
Cc1ccc(-c2c(C)n[nH]c(=O)c2-c2c(Cl)cccc2Cl)nc1C [5-(5,6-Dimethyl-2-pyridyl)-4-(2,6-dichlorphenyl)-6-methylpyridazin-3(2H)-on]	2.11	–
Cc1n[nH]c(=O)c(-c2cccc3c2OC(F)(F)O3)c1-c1ccc(Cl)s1 [5-(5-Chlor-2-thienyl)-4-(2,2-difluor-1,3-benzodioxol-4-yl)-6-methylpyridazin-3(2H)-on]	3.18	–
CC1(O)OC(=O)C(c2c(F)cccc2Cl)=C1c1ccc(Cl)s1 (stereo not shown) [3-(2-Chlor-6-fluorphenyl)-4-(5-chlor-2-thienyl)-5-hydroxy-5-methylfuran-2(5H)-on]	3.13	–
CC1(O)OC(=O)C(c2ccccc2F)=C1c1cccs1 (stereo not shown) [3-(2-Fluorphenyl)-4-(2-thienyl)-5-hydroxy-5-methylfuran-2(5H)-on]	2.29	–
CC1(O)OC(=O)C(c2cc(F)c(F)cc2F)=C1c1ccc(Cl)s1 (stereo not shown) [4.(5-Chlor-2-thienyl)-3-(2,4,5-trifluorphenyl)-5-hydroxy-5-methylfuran-2(5H)-on]	3.17	–
CC1(O)OC(=O)C(c2ccc(F)cc2Br)=C1c1ccc(Cl)s1 (stereo not shown) [3-(2-Brom-4-fluorphenyl)-4-(5-chlor-2-thienyl)-5-hydroxy-5-methylfuran-2(5H)-on]	3.3	–
Cc1ccc(C2=C(c3cc(F)c(F)cc3F)C(=O)OC2(C)O)nc1C (stereo not shown) [3-(2,4,5-Trilluorphenyl)4-(5,6-Dimethyl-2-pyridyl)-5-hydroxy-5-methylfuran-2(5H)-on]	2.89	–
Cc1ccc(-c2c(C)n[nH]c(=O)c2-c2cc(F)c(F)cc2F)nc1C [5-(5,6-Dimethyl-2-pyridyl)-4-(2,4,5-trifluorphenyl)-6-methylpyridazin-3(2H)-on]	2.06	–
Cc1ccc(C2=C(c3c(Cl)cccc3Cl)C(=O)OC2(C)O)nc1C (stereo not shown) [3-(2,6-Dichlorphenyl)-4-(5,6-Dimethyl-2-pyridyl)5-hydroxy-5-methylfuran-2(5H)-on]	3.14	–
CC1(O)OC(=O)C(c2c(Cl)cccc2Cl)=C1c1ccc(Cl)s1 (stereo not shown) [4-(5-Chlor-2-thienyl)-3-(2,6-dichlorphenyl)-5-hydroxy-5-methylfuran-2(5H)-on]	3.26	–
Cc1nnc(Cl)c(-c2ccccc2Cl)c1-c1ccc(Cl)s1 [Beispiel 58]	4.01	–
CC1(O)OC(=O)C(c2ccc(F)cc2Cl)=C1c1cccs1 (stereo not shown) [3-(2-Chlor-4-fluorphenyl)-4-(2-thienyl)-5-hydroxy-5-methylfuran-2(5H)-on]	2.68	–
Cc1ccc(C2=C(c3c(F)cccc3F)C(C)(O)OC2=O)o1 (stereo not shown) [4-(2,6-Difluorphenyl)-3-(5-Methyl-2-furyl)-5-hydroxy-5-methylfuran-2(5H)-on]	–	2.35
CC1(O)OC(=O)C(c2cc(F)c(F)cc2F)=C1c1cccs1 (stereo not shown) [3-(2,4,5-Trifluorphonyl)-4-(2-thienyl)-5-hydroxy-5-methylfuran-2(5H)-on]	2.57	–
CC1(O)OC(=O)C(c2cccc(Cl)c2)=C1c1ccc(Cl)s1 (stereo not shown) [3-(3-Chlorphenyl)-4-(5-chlor-2-thienyl)-5-hydroxy-5-metylfuran-2(5H)-on]	3.38	–
Cc1n[nH]c(=O)c(-c2cc(F)c(F)cc2F)c1-c1cccs1 [5-(2-thienyl)-4-(2,4,5-trifluorphenyl)-6-methylpyridazin-3(2H)-on]	2.32	–
Cc1n[nH]c(=O)c(-c2cc(F)c(F)cc2F)c1-c1ccc(Cl)s1 [5-(5-Chlor-2-thienyl)-4-(2,4,5-trifluorphanyl)-6-methylpyridazin-3(2H)-on]	2.88	–
Cc1n[nH]c(=O)c(-c2c(F)cccc2F)c1-c1nccs1 [5-(2-Thiazolyl)-4-(2,6-difluorphenyl)-6-methylpyridazin-3(2H)-on]	1.57	–
Cc1n[nH]c(=O)c(-c2c(Cl)cccc2Cl)c1-c1cccs1 [4-(2,6-Dichlorphenyl)-5-(2-thienyl)-6-methylpyridazin-3(2H)-on]	2.43	–
Cc1ccc(C2=C(c3c(F)cccc3F)C(=O)OC2(C)O)nc1C (stereo not shown) [3-(2,6-Difluorphenyl)-4-(5,6-Dimethyl-2-pyridyl)-5-hydroxy-5-methylfuran-2(5H)-on]	2.65	–
CC1(O)OC(=O)C(c2cccc3c2OC(F)(F)O3)=C1c1ccc(Cl)s1 (stereo not shown) [4-(5-Chlor-2-thienyl)-3-(2,2-difluor-1,3-benzodioxol-4-yl)-5-hydroxy-5-methylfuran-2(5H)-on]	3.41	–
CC1(O)OC(=O)C(c2ccccc2Cl)=C1c1ccc(Cl)s1 (stereo not shown) [3-(2-Chlorphenyl)-4-(5-chlor-2-thienyl)-5-hydroxy-5-methylfuran-2(5H)-on]	3.91	–
CC1(O)OC(=O)C(c2c(F)cccc2F)=C1c1nccs1 (stereo not shown) [3-(2,6-Difluorphonyl)-4-(2-thiazolyl)-5-hydroxy-5-methylfuran-2(5H)-on]	1.92	–
